These results are taken from BindingDB's records for patent US20230399314 (Wuhan Humanwell Innovative Drug Research and Development …, 2023).

The term IC50 denotes the concentration that gives 50% inhibition.

For the assay, the target named is 5'-nucleotidase (Homo sapiens, UniProt P21589). As to the kind of experiment: In Vitro Inhibitory Activity of Compound to Recombinant Human CD73 Enzyme. Here is the method: Human-CD73 (Novoprotein; C446) was diluted with Tris-MgCl2 buffer to form a stock solution (3×), which was placed in a 96-well plate according to 20 μL/well to obtain a final concentration of 0.1 μg/mL. The compound was diluted with Tris-MgCl2 buffer to form a stock solution (3×) of an appropriate concentration gradient, the compound solution was added to the above 96-well plate according to 20 μL/well and uniformly mixed with the Human-CD73 solution, and the mixture was incubated at the room temperature for 30 min. Meanwhile, a positive reference group (without the compound) and a negative reference group (without CD73) were set. AMP (Sigma; A1752-5G) was diluted with Tris-MgCl2 buffer to form a stock solution (3×), which was added to the above 96-well plate according to 20 μL/well to obtain a final concentration of 100 μM, and the mixture was uniformly mixed and incubated at 37° C. for 60 min; ATP (Sigma; A7699-1G) was diluted with Tris-MgCl2 buffer to form a stock solution (7×), which was added to the above 96-well plate according to 10 μL/well to obtain a final concentration of 100 μM, and the mixture was uniformly mixed, incubated for 5 min, and tested by using an ATP-GLO kit (Promega; G7573).
5'-nucleotidase, sequence (P21589 whole entry): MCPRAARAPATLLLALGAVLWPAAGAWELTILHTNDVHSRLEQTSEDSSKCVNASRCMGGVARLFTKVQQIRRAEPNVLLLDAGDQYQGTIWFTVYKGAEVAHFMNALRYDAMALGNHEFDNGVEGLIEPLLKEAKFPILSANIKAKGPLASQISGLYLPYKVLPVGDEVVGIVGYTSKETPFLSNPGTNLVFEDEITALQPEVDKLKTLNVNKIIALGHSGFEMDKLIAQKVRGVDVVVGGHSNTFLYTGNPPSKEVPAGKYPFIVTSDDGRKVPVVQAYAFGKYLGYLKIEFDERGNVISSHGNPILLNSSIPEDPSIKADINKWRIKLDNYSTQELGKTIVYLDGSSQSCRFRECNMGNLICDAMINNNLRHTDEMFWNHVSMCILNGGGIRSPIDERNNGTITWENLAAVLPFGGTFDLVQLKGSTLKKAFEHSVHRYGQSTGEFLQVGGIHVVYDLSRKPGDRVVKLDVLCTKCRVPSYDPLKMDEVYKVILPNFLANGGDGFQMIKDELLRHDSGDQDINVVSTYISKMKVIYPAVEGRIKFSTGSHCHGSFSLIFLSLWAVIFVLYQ
Consider `O=c1[nH]cc(-c2cc([C@@H]3C[C@H]3C(F)(F)F)c(Cl)nn2)c(=O)[nH]1` (relative stereo) [US20230399314, Compound 2], for which the IC50 was determined as 23.2 nM.

Turning to `O=c1[nH]cc(-c2cc([C@H]3C[C@@H]3C(F)(F)F)c(Cl)nn2)c(=O)[nH]1` [US20230399314, Compound 3], the IC50 is 11.6 nM. In the case of `O=c1[nH]cc(-c2cc([C@H]3C[C@@H]3CF)c(Cl)nn2)c(=O)[nH]1` [US20230399314, Compound 9] it was 4.59 nM.
